Test results reported in ChEMBL document CHEMBL1201862, “PubChem BioAssay data set” (2004).
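Cultured in 96-well plates, cells were exposed to test compound for 48 hours across five concentrations. GI50: concentration for 50% inhibition of growth.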 Active and inactive are the calls of the source. No stated cut-off is given here; in the data, active = GI50 up to about 1.1 µM and inactive = higher.

Key:
Test in all cases: inhibition of tumour cell growth, NCI panel, 48 h
[1] = tested on: MOLT-4
[2] = tested on: HT-29
[3] = tested on: Malme-3M
[4] = tested on: M14
[5] = tested on: NCI-H522
[6] = tested on: EKVX
[7] = tested on: LOX IMVI
[8] = tested on: LXFL 529
[9] = tested on: KM-20L2
[10] = tested on: IGROV-1
[11] = tested on: UACC-62
[12] = tested on: OVCAR-4
[13] = tested on: HCT-116
[14] = tested on: RPMI-8226
[15] = tested on: KM12
[16] = tested on: NCI-H226
[17] = tested on: A549
[18] = tested on: OVCAR-3
[19] = tested on: SF-268
[20] = tested on: HOP-92
[21] = tested on: HL-60
[22] = tested on: SN12C
[23] = tested on: SK-MEL-2
[24] = tested on: NCI-H23
[25] = tested on: M19-MEL
[26] = tested on: SR
[27] = tested on: UO-31
[28] = tested on: OVCAR-5
[29] = tested on: UACC-257
[30] = tested on: XF498
[31] = tested on: SK-MEL-28
[32] = tested on: OVCAR-8
[33] = tested on: 786-0
[34] = tested on: ACHN
[35] = tested on: HOP-62
[36] = tested on: SK-MEL-5
[37] = tested on: SW-620
[38] = tested on: TK-10
[39] = tested on: U-251
[40] = tested on: HCT-15
[41] = tested on: SF-295
[42] = tested on: NCI-H460
[43] = tested on: HCC 2998
[44] = tested on: COLO 205
[45] = tested on: SK-OV-3
[46] = tested on: K562
[47] = tested on: SF-539
[48] = tested on: SNB-19
[49] = tested on: CCRF-CEM

N#Cc1ccccc1NC(=O)/C(=N\N)C(C(=O)c1ccncc1)C1OC(=O)c2ccccc21 (centres undefined)
GI50 [1]: > 100 µM (inactive)
GI50 [2]: > 100 µM (inactive)
GI50 [3]: > 100 µM (inactive)
GI50 [4]: > 100 µM (inactive)
GI50 [5]: > 100 µM (inactive)
GI50 [6]: > 100 µM (inactive)
GI50 [7]: > 100 µM (inactive)
GI50 [8]: > 100 µM (inactive)
GI50 [9]: > 100 µM (inactive)
GI50 [10]: > 100 µM (inactive)
GI50 [11]: > 100 µM (inactive)
GI50 [12]: > 100 µM (inactive)
GI50 [13]: > 100 µM (inactive)
GI50 [14]: > 100 µM (inactive)
GI50 [15]: > 100 µM (inactive)
GI50 [16]: > 100 µM (inactive)
GI50 [17]: > 100 µM (inactive)
GI50 [18]: > 100 µM (inactive)
GI50 [19]: > 100 µM (inactive)
GI50 [20]: > 100 µM (inactive)
GI50 [21]: > 100 µM (inactive)
GI50 [22]: > 100 µM (inactive)
GI50 [23]: > 100 µM (inactive)
GI50 [24]: > 100 µM (inactive)
GI50 [25]: > 100 µM (inactive)
GI50 [26]: > 100 µM (inactive)
GI50 [27]: > 100 µM (inactive)
GI50 [28]: > 100 µM (inactive)
GI50 [29]: > 100 µM (inactive)
GI50 [30]: > 100 µM (inactive)
GI50 [31]: > 100 µM (inactive)
GI50 [32]: > 100 µM (inactive)
GI50 [33]: > 100 µM (inactive)
GI50 [34]: > 100 µM (inactive)
GI50 [35]: > 100 µM (inactive)
GI50 [36]: > 100 µM (inactive)
GI50 [37]: > 100 µM (inactive)
GI50 [38]: > 100 µM (inactive)
GI50 [39]: > 100 µM (inactive)
GI50 [40]: > 100 µM
GI50 [41]: > 100 µM (inactive)
GI50 [42]: > 100 µM (inactive)
GI50 [43]: > 100 µM (inactive)
GI50 [44]: > 100 µM (inactive)
GI50 [45]: > 100 µM (inactive)
GI50 [46]: > 100 µM (inactive)
GI50 [47]: > 100 µM (inactive)
GI50 [48]: > 100 µM (inactive)
GI50 [49]: > 100 µM (inactive)
